Compound `O=C(O)C1Cc2ccccc2CN1C(=O)c1ccc(F)c(F)c1` (configuration not stated) gave a melting point of 89 to 91 °C.
As for `CC(C)(C)NC1=NS(=O)(=O)c2sc(Cl)cc2N1`, the figure is 368 to 372 °C; as for `COC1CC2(C)C(CCC3C4CCC(C(C)=O)C4(C)CC(=O)C32)CC1O` (configuration not stated), 163 to 164 °C.
In turn, `Nc1cccc(NC(=O)C(=O)N2CCC(Cc3ccc(F)cc3)CC2)c1` displayed a melting point of 117 to 120 °C.
The value for `CC(C)(C)OC(=O)N1C[C@@H]2OCc3c(-c4cccc(F)c4)nnn3[C@H]2C1` was 249 to 250 °C; that for `COc1ccc(C(CI)(OC)OC)cc1` was 54 to 55 °C; that for `NC(=O)c1ccccc1N1CCc2cc(Cl)ccc21` was 137 to 138 °C.
As for `CS(=O)(=O)c1ccc(-n2cncc2-c2ccc(OC(F)(F)F)cc2)cc1`, the figure is 141 to 142 °C; as for `COc1ccc(Cl)cc1C(=O)NCCc1ccc(-c2ccc(OC(C)(C)C(=O)O)cc2)cc1`, 145 °C; as for `COc1ccc(-c2[nH]nc3c2C(=O)c2c(NC(=O)Cc4ccccc4Cl)cccc2-3)cc1`, 300 °C.
As for `CN(C)C(=O)OC1c2ccccc2C(=O)N1c1ccc2ccc(Cl)nc2n1` (configuration not stated), the figure is 217 to 218 °C.
Regarding `Cc1cc(CN(C)c2cc(-c3ccc(Cl)cc3)nn2C)cc(C)c1OC(C)(C)C(=O)O`, the melting point was 158 °C.
Regarding `CC1=C(C(=O)CS(=O)(=O)NC(C)C)[C@@H](c2cccc([N+](=O)[O-])c2)C(C(=O)O[C@@H](C)c2ccccc2)=C(C)N1`, the melting point lay in the range of 128 to 131 °C.
The value for `C[C@@H](C(=O)OCCCCNc1cccc2c1C(=O)c1ccccc1C2=O)N(C)C(=O)OC(C)(C)C` was 62 °C; that for `CC(C)(C)c1ccc(C(=O)Nc2cc[nH]c(=O)n2)cc1` was greater than 260 °C; that for `COc1cc(Nc2c(C#N)cnc3cc(-c4cccc(CN5CCOCC5)c4)c(OC)cc23)c(Cl)cc1Cl` was 155 to 158 °C.
The value for `C1COCCOCCOCCOCCO1` was 70 to 71 °C.
As for `COCC1CN(c2ccc(C3CCN(Cc4ccccc4)CC3)cc2)C(=O)O1` (racemic), the figure is 175 to 177 °C.
For `COC(=O)CC1C(OC(C)=O)CC(=O)C1C(=O)OC` (configuration not stated), the melting point was 54 °C.
The value for `NC(=O)c1ccc(F)c2c1OCC=C2` was 152 to 154 °C; that for `Cc1cncc(C)c1-c1c(C)cc(C=Cc2cc(C(C)(C)C)c(O)c(C(C)(C)C)c2)cc1C` was 234 to 235 °C.
As for `CCCCCCc1ccc2c3ccc(C=O)cc3n(C)c2c1`, the figure is 55 to 56 °C; as for `CCCC(=O)c1cnc2c(OC)nccc2c1Nc1ccccc1C`, 144 °C.
As for `COCc1nc2c(N)nc3cc(CCS(C)(=O)=O)ccc3c2n1CC(C)(C)O`, the figure is 210 to 212 °C; as for `COC(=O)/C=C/c1ccc(N(C)C(C)=O)nc1`, 94.3 °C; as for `CN(C1CCC(O)CC1)S(=O)(=O)c1ccc(Nc2nccc(Nc3ccc(F)cc3)n2)cc1` (configuration not stated), 203 °C.
Turning to `O=C(O)[C@H]1O[C@H](c2ccccc2Cl)c2cc(Cl)ccc2N(Cc2ccccc2)C1=O` (relative stereo), the melting point was 177 °C.
The value for `COc1ccc(/C=C/C(=O)C#CCO)cc1` was 68 to 69 °C.
As for `COC(=O)CS(=O)(=O)N1CC=C(c2ccc(-c3ccccc3)c(OC)c2)CC1`, the figure is 92 to 95 °C; as for `CCC12CCC(=O)C=C1c1c(cc(OC(C)C(=O)OC3COC(C)(C)O3)c(Cl)c1Cl)C2` (configuration not stated), 143 to 145 °C.
As for `COC(=O)Cn1c(C(=O)O)cc2cc(C)cc(C)c21`, the figure is 221 to 223 °C; as for `O=C1C(c2ccccc2)=C(c2ccccc2)C(=O)N1c1cccc(F)c1`, 157 to 158 °C; as for `c1ccc(-c2ccc3c(c2)sc2c4ccc(-c5ccccc5)cc4sc32)cc1`, greater than 300 °C.
Consider `CCCOc1ccc2c(c1)[C@@H](c1ccc(OC)cc1OCCO)[C@H](C(=O)O)[C@H]2c1ccc2c(c1)OCO2`, for which the melting point lay in the range of 125 to 127 °C.
The value for `CCNCCCN1c2ccccc2N(C)C(=O)c2c(C)cc(C)nc21` was 101 to 103 °C.
The value for `CC(=NNC(=O)c1ccccc1C)c1ccncc1` was 187 °C; that for `CCCOCCOc1ccc(-c2ccc3c(c2)C=C(C(=O)Nc2ccc(CN(C)C4CCOCC4)cc2)CCS3(=O)=O)cc1` was 195 to 197 °C.
The value for `COc1cc(-n2nc(Cl)cc2-c2ccc(S(C)(=O)=O)cc2)ccc1[N+](=O)[O-]` was 170 to 175 °C; that for `CC(C)(CNc1ccnc2cc(Cl)ccc12)NCc1ccc(Cl)c(Cl)c1` was 178 to 179 °C; that for `CC(=O)SCC(C)C(=O)N1C(C(=O)O)CC2CCCCC21` (configuration not stated) was 152 to 154 °C.
As to `CC(C)Oc1cc(F)nc(N)n1`, the melting point is 66 to 68 °C.
The value for `Cc1cc2oc(S(=O)(=O)N=CN(C)C)cc2cn1` was 175 to 177 °C; that for `COc1ccc(-n2nc(C(C)C)cc2-c2ccc(OCCNS(C)(=O)=O)cc2)cn1` was 96 to 97 °C; that for `O=C1c2cc(O)ccc2OCC1Cc1ccncc1` (configuration not stated) was 188 to 190 °C.
As for `CC1Nc2cc(N(C)C(=O)c3ccc(-c4ccccc4)cc3)ccc2N1C` (configuration not stated), the figure is 213 to 214 °C; as for `CCOC(=O)C(Cc1ccc(C#N)cc1)(NC(C)=O)C(=O)OCC`, 160 to 163 °C.
The value for `O=[N+]([O-])c1ccc2c(c1)C1OC1CCO2` (configuration not stated) was 121 to 123 °C; that for `CS(=O)(=O)c1ccc(-n2c(-c3ccc(F)cc3)nc(O)c(C#N)c2=O)cc1` was greater than 285 °C.
`Oc1ccc(OCCN2CCC(CC34CC5CC(CC(C5)C3)C4)CC2)cc1` returned a melting point of 178 to 179 °C.
As for `C=CCNC(=O)C1C=C(O)c2cc(Cl)ccc2O1` (configuration not stated), the figure is 129 to 130 °C; as for `CCOC(=O)C1=COc2cc(C(C)=O)ccc2O1`, 122 °C.
As for `CSc1nc(N)nc(N)c1-c1ccc(Cl)cc1Cl`, the figure is 191 to 192 °C; as for `Cn1c(=O)[nH]c2cc(CN3CCN(C(c4ccccc4)c4ccccc4)CC3)ccc21`, 246 °C.
As for `COc1ccc(C(=NO)c2ccc(OC)cc2)cc1`, the figure is 131 to 132 °C; as for `COc1ccc(-c2nc3cnccc3[nH]2)c(OCC#N)c1`, 198 °C; as for `CCC(OC)(c1cncc(OCc2ccc3ccccc3c2)c1)c1nccs1` (configuration not stated), 93 to 95 °C.
Take `Cc1nc2c(cc1C#CCO)c(=O)c(C(=O)NCc1ccc(Cl)cc1)cn2C`: the melting point lay within 217 to 218 °C.
The value for `CC(=O)c1c(Br)[nH]c(-c2ccncc2)c1C` was 205 to 206 °C; that for `CC(C)[C@H](NC(=O)OCc1ccccc1)C(=O)N[C@@H](Cc1ccccc1)C(=O)C[C@@H]1CCCC[C@H]1C(=O)NC(C)(C)C` was 186 to 188 °C; that for `Cc1nc(N2CCN(CC3CC3)C2=O)sc1C(=O)NCc1cccnn1` was 187 to 189 °C.
As for `CC1(C)Oc2ccc([N+](=O)[O-])cc2C(n2ccccc2=O)=C1CNC=O`, the figure is 170 °C; as for `CNC(=O)C1(Oc2ccc3c(c2)c(-c2cc4cccnc4[nH]2)cn3C)CCC1`, 249 to 250 °C.
